Data taken from ChEMBL document CHEMBL5150014, “Discovery and Development of Dolastatin 10-Derived Antibody Drug Conjugate Anticancer Drugs” (J Nat Prod, 2022).
Starred links: 1 amine or outer side, 2 acyl side, 3 side chain; linkers in the order of their positions; H or OH if unused. Non-standard residues stand in square brackets, D forms with d. Residues, ends and D or L forms follow the SMILES beside them. *: point of attachment. X2 = CO[C@H]([C@@H](C)C(=O)[*:2])[C@@H]1C[C@@H]2C[C@@H]2N1[*:1]; Dolaproine = CO[C@@H]([C@@H]1CCCN1)[C@@H](C)C(=O)O; Dil = CC[C@H](C)[C@H](NC)[C@@H](CC(=O)O)OC; Phe(2-Cl) = N[C@@H](Cc1ccccc1Cl)C(=O)O; Phe(2-F) = N[C@@H](Cc1ccccc1F)C(=O)O; NMe2Val = CC(C)[C@@H](C(=O)*)N(C)C; NMeV = CN[C@H](C(=O)O)C(C)C

Columns and labels:
H3396 [1] = test: Cytotoxicity against human H3396 cells assessed as cell growth inhibition; format: functional, cell-based
SK-BR-3 = test: Cytotoxicity against human SK-BR-3 cells assessed as cell growth inhibition incubated for 72 hrs by CellTiter-Glo assay; format: functional
L1210 = test: Cytotoxicity against mouse L1210 cells assessed as cell growth inhibition measured after 24 hrs; format: functional, cell-based; conditions: L1210, 24 h
HT-29 = test: Cytotoxicity against human HT-29 cells assessed as cell growth inhibition; format: functional, cell-based
[2] = test system: Panel NCI-60 (60 carcinoma cell lines); test: Cytotoxicity against human Panel NCI-60 (60 carcinoma cell lines) assessed as cell growth inhibition; format: functional, cell-based
H3396 [3] = test: Cytotoxicity against human H3396 cells assessed as cell growth inhibition measured after 96 hrs by resazurin dye based assay; format: functional
HCT-116 = test: Cytotoxicity against human HCT-116 cells assessed as cell growth inhibition measured after 96 hrs by resazurin dye based assay; format: functional
BT-474 = test: Anticancer activity against human BT-474 assessed as cell growth inhibition incubated for 4 days by WST-8 assay; format: functional; conditions: BT-474, 96 h, time 4 day
Tubulin = test: Inhibition of tubulin (unknown origin) polymerization assessed as reduction in microtubule formation measured for 20 mins by spectrophotometric analysis; format: protein-complex assay, Homo sapiens

Work on `CC[C@H](C)[C@@H]([C@@H](CC(=O)N1CCC[C@H]1[C@H](OC)[C@@H](C)C(=O)N[C@@H](Cc1ccccc1)C(=O)OC)OC)N(C)C(=O)[C@@H](NC(=O)[C@@H](NC)C(C)C)C(C)C` (H-[NMeV]V[Dil][Dolaproine]F-OMe) yielded an IC50 (H3396 [1]) of under 0.001 nM.
For `CC[C@H](C)[C@@H]([C@@H](CC(=O)N1[C@H]2C[C@H]2C[C@H]1[C@H](OC)[C@@H](C)C(=O)N[C@@H](Cc1ccccc1Cl)C(=O)O)OC)N(C)C(=O)[C@@H](NC(=O)[C@@H](NC)C(C)C)C(C)C` (H-[NMeV]V[Dil][X2][Phe(2-Cl)]-OH), the GI50 (SK-BR-3) was 1.06 nM.
In the case of `CC[C@H](C)[C@@H]([C@@H](CC(=O)N1CCC[C@H]1[C@@H](OC)[C@@H](C)C(=O)N[C@@H](Cc1ccccc1)c1nccs1)OC)N(C)C(=O)[C@@H](NC(=O)[C@H](C(C)C)N(C)C)C(C)C`, the IC50 (L1210) is reported as over 10000 nM.
For `CC[C@H](C)[C@@H]([C@@H](CC(=O)N1CCC[C@H]1[C@H](OC)[C@@H](C)C(=O)NC1(C(=O)N2Cc3ccccc3CO2)C[C@@H]1c1ccccc1)OC)N(C)C(=O)[C@@H](NC(=O)[C@H](C(C)C)N(C)C)C(C)C` (some centres not stated), the IC50 (HT-29) was 1.2 nM.
For `CC[C@H](C)[C@@H]([C@@H](CC(=O)N1CCC[C@H]1[C@H](OC)[C@@H](C)C(=O)N[C@@H](Cc1ccccc1)C(=O)OC)OC)N(C)C(=O)[C@@H](NC(=O)[C@H](C(C)C)N(C)C)C(C)C` (NMe2Val-V[Dil][Dolaproine]F-OMe), the GI50 [2] was 0.2 nM.
Work on `CCOP(=O)(OCC)[C@H](Cc1ccccc1)NC(=O)[C@H](C)[C@@H](OC)[C@@H]1CCCN1C(=O)C[C@@H](OC)[C@H]([C@@H](C)CC)N(C)C(=O)[C@@H](NC(=O)[C@H](C(C)C)N(C)C)C(C)C` yielded a GI50 (H3396 [3]) of 0.09 nM and a GI50 (HCT-116) of 6 nM.
Compound `CC[C@H](C)[C@@H]([C@@H](CC(=O)N1C[C@H](O)C[C@H]1[C@H](OC)[C@@H](C)C(=O)NCCc1ccccc1)OC)N(C)C(=O)[C@@H](NC(=O)[C@H](C(C)C)N(C)C)C(C)C` has a GI50 (BT-474) of 0.68 nM.
For `CC[C@H](C)[C@@H]([C@@H](CC(=O)N1CCC[C@H]1[C@H](OC)[C@@H](C)C(=O)N[C@H](/C=C\c1ccccc1)Cc1ccccc1)OC)N(C)C(=O)[C@@H](NC(=O)[C@H](C(C)C)N(C)CCCC(=O)O)C(C)C`, the IC50 (HT-29) was 3.3 nM.
`CC[C@H](C)[C@@H]([C@@H](CC(=O)OC(C)(C)C)OC)N(C)C(=O)[C@@H](NC(=O)[C@H](C(C)C)N(C)C)C(C)C` was tested, and the IC50 (Tubulin) was 4.2 nM.
In the case of `CC[C@H](C)[C@@H]([C@@H](CC(=O)N1CCC[C@H]1[C@H](OC)[C@@H](C)C(=O)NCCc1ccccc1)OC)N(C)C(=O)[C@@H](NC(=O)[C@H](C(C)C)N(C)C)C(C)C` [SOBLIDOTIN], the GI50 [2] is reported as 0.49 nM.
With `CC[C@H](C)[C@@H]([C@@H](CC(=O)N1C[C@@H](NC)C[C@H]1[C@H](OC)[C@@H](C)C(=O)NCCc1c(F)cccc1F)OC)N(C)C(=O)[C@@H](NC(=O)[C@H](C(C)C)N(C)C)C(C)C` the GI50 (BT-474) was 0.34 nM.
In the case of `CC[C@H](C)[C@@H]([C@@H](CC(=O)N1C[C@@H](N)C[C@H]1[C@H](OC)[C@@H](C)C(=O)NCCc1c(F)cccc1F)OC)N(C)C(=O)[C@@H](NC(=O)[C@H](C(C)C)N(C)C)C(C)C`, the GI50 (BT-474) is reported as 0.17 nM.
Work on `CC[C@H](C)[C@@H]([C@@H](CC(=O)N1CCC[C@H]1[C@H](OC)[C@@H](C)C(=O)N[C@@H](Cc1ccccc1)C(=O)O)OC)N(C)C(=O)[C@@H](NC(=O)[C@H](C(C)C)N(C)C)C(C)C` (NMe2Val-V[Dil][Dolaproine]F-OH) yielded an IC50 [2] of 105 nM.
`CC[C@H](C)[C@@H]([C@@H](CC(=O)N1C[C@@H](O)C[C@H]1[C@H](OC)[C@@H](C)C(=O)NCCc1c(F)cccc1F)OC)N(C)C(=O)[C@@H](NC(=O)[C@H](C(C)C)N(C)C)C(C)C` gave a GI50 (BT-474) of 0.23 nM.
`CC[C@H](C)[C@@H]([C@@H](CC(=O)N1C[C@@H](OC)C[C@H]1[C@H](OC)[C@@H](C)C(=O)NCCc1ccccc1)OC)N(C)C(=O)[C@@H](NC(=O)[C@H](C(C)C)N(C)C)C(C)C` showed a GI50 (BT-474) of 0.24 nM.
Work on `CC[C@H](C)[C@@H]([C@@H](CC(=O)N1CCC[C@H]1[C@H](OC)[C@@H](C)C(=O)N[C@@H](Cc1ccccc1F)C(=O)O)OC)N(C)C(=O)[C@@H](NC(=O)[C@@H](NC)C(C)C)C(C)C` (H-[NMeV]V[Dil][Dolaproine][Phe(2-F)]-OH) yielded a GI50 (SK-BR-3) of 81.6 nM.
